Reference: PubChem BioAssay AID1259407 (Chemical Carcinogenesis Research Information System (CCRIS), 2018)
Activity calls are given as the source filed them. How the calls were made is not given here.

Tested on: CCRIS mutagenicity, Ames/micronucleus/aberration tests
Assay: CCRIS mutagenicity studies
[1] = Test System: AMES SALMONELLA TYPHIMURIUM, Strain/Indicator: TA98, Metabolic Activation: NONE, Method: PREINCUBATION
[2] = Test System: AMES SALMONELLA TYPHIMURIUM, Strain/Indicator: TA98, Metabolic Activation: RAT, LIVER, S-9, PHENOBARBITAL AND BETA-NAPHTHOFLAVONE, Method: PREINCUBATION
[3] = Test System: AMES SALMONELLA TYPHIMURIUM, Strain/Indicator: TA100, Metabolic Activation: NONE, Method: PREINCUBATION
[4] = Test System: AMES SALMONELLA TYPHIMURIUM, Strain/Indicator: TA100, Metabolic Activation: RAT, LIVER, S-9, PHENOBARBITAL AND BETA-NAPHTHOFLAVONE, Method: PREINCUBATION
[5] = Test System: AMES SALMONELLA TYPHIMURIUM, Strain/Indicator: TA102, Metabolic Activation: NONE, Method: PREINCUBATION
[6] = Test System: AMES SALMONELLA TYPHIMURIUM, Strain/Indicator: TA102, Metabolic Activation: RAT, LIVER, S-9, PHENOBARBITAL AND BETA-NAPHTHOFLAVONE, Method: PREINCUBATION
[7] = Test System: AMES SALMONELLA TYPHIMURIUM, Strain/Indicator: TA1535, Metabolic Activation: NONE, Method: PREINCUBATION
[8] = Test System: AMES SALMONELLA TYPHIMURIUM, Strain/Indicator: TA100, Metabolic Activation: NONE, Method: STANDARD PLATE
[9] = Test System: AMES SALMONELLA TYPHIMURIUM, Strain/Indicator: TA98, Metabolic Activation: NONE, Method: STANDARD PLATE
[10] = Test System: AMES SALMONELLA TYPHIMURIUM, Strain/Indicator: TA98, Metabolic Activation: RAT, LIVER, S-9, AROCLOR 1254, Method: STANDARD PLATE
[11] = Test System: AMES SALMONELLA TYPHIMURIUM, Strain/Indicator: TA100, Metabolic Activation: RAT, LIVER, S-9, AROCLOR 1254, Method: STANDARD PLATE

## CCCCCCCCO
[1]
  mutagenic call: inactive; negative
[2]
  mutagenic call: inactive; negative
[3]
  mutagenic call: inactive; negative
[4]
  mutagenic call: inactive; negative
Test System: AMES SALMONELLA TYPHIMURIUM, Strain/Indicator: TA100, Metabolic Activation: RAT, LIVER, S-9, SODIUM PHENOBARBITAL AND 5,6-BENZOFLAVONE, Method: PREINCUBATION
  mutagenic call: inactive; negative
[5]
  mutagenic call: inactive; negative
[6]
  mutagenic call: inactive; negative
Test System: AMES SALMONELLA TYPHIMURIUM, Strain/Indicator: TA102, Metabolic Activation: RAT, LIVER, S-9, SODIUM PHENOBARBITAL AND 5,6-BENZOFLAVONE, Method: PREINCUBATION
  mutagenic call: inactive; negative
Test System: AMES SALMONELLA TYPHIMURIUM, Strain/Indicator: TA104, Metabolic Activation: NONE, Method: PREINCUBATION
  mutagenic call: inactive; negative
Test System: AMES SALMONELLA TYPHIMURIUM, Strain/Indicator: TA104, Metabolic Activation: RAT, LIVER, S-9, PHENOBARBITAL AND BETA-NAPHTHOFLAVONE, Method: PREINCUBATION
  mutagenic call: inactive; negative
Test System: AMES SALMONELLA TYPHIMURIUM, Strain/Indicator: TA104, Metabolic Activation: RAT, LIVER, S-9, SODIUM PHENOBARBITAL AND 5,6-BENZOFLAVONE, Method: PREINCUBATION
  mutagenic call: inactive; negative
[7]
  mutagenic call: inactive; negative
Test System: AMES SALMONELLA TYPHIMURIUM, Strain/Indicator: TA1535, Metabolic Activation: RAT, LIVER, S-9, PHENOBARBITAL AND BETA-NAPHTHOFLAVONE, Method: PREINCUBATION
  mutagenic call: inactive; negative
Test System: AMES SALMONELLA TYPHIMURIUM, Strain/Indicator: TA1537, Metabolic Activation: NONE, Method: PREINCUBATION
  mutagenic call: inactive; negative
Test System: AMES SALMONELLA TYPHIMURIUM, Strain/Indicator: TA1537, Metabolic Activation: RAT, LIVER, S-9, PHENOBARBITAL AND BETA-NAPHTHOFLAVONE, Method: PREINCUBATION
  mutagenic call: inactive; negative
Test System: E. COLI, Strain/Indicator: WP2UVRA/PKM101, Metabolic Activation: NONE, Method: PREINCUBATION
  mutagenic call: inactive; negative
Test System: E. COLI, Strain/Indicator: WP2UVRA/PKM101, Metabolic Activation: RAT, LIVER, S-9, PHENOBARBITAL AND BETA-NAPHTHOFLAVONE, Method: PREINCUBATION
  mutagenic call: inactive; negative
Test System: E. COLI, Strain/Indicator: WP2UVRA/PKM101, Metabolic Activation: RAT, LIVER, S-9, SODIUM PHENOBARBITAL AND 5,6-BENZOFLAVONE, Method: PREINCUBATION
  mutagenic call: inactive; negative
Test System: E. COLI, Strain/Indicator: WP2UVRA, Metabolic Activation: NONE, Method: PREINCUBATION
  mutagenic call: inactive; negative
Test System: E. COLI, Strain/Indicator: WP2UVRA, Metabolic Activation: RAT, LIVER, S-9, PHENOBARBITAL AND BETA-NAPHTHOFLAVONE, Method: PREINCUBATION
  mutagenic call: inactive; negative

## O=C(NCO)c1ccc(Cl)cc1
Test System: AMES SALMONELLA TYPHIMURIUM, Strain/Indicator: TA100, Metabolic Activation: RAT, LIVER, S-9, AROCLOR AND 3'-PHOSPHOADENOSINE-5'-PHOSPHOSULPHATE GENERATING SYSTEM, Method: PREINCUBATION
  mutagenic call: inactive; negative
Test System: AMES SALMONELLA TYPHIMURIUM, Strain/Indicator: TA100, Metabolic Activation: RAT, LIVER, S-9, AROCLOR AND ACETYL COENZYME A, Method: PREINCUBATION
  mutagenic call: inactive; negative
Test System: AMES SALMONELLA TYPHIMURIUM, Strain/Indicator: TA100, Metabolic Activation: RAT, LIVER, S-9, AROCLOR, Method: PREINCUBATION
  mutagenic call: inactive; negative

## O=C(O)C1CCCCC1
Test System: UDS RAT GASTRIC MUCOSAL CELLS, Strain/Indicator: THY INCORP, Metabolic Activation: NONE, Method: LIQUID SCINTILLATION COUNTING
  mutagenic call: inactive; negative

## c1ccc(CC2CO2)cc1 (configuration not stated)
[3]
  mutagenic call: active; positive
[8]
  mutagenic call: active; positive
[7]
  mutagenic call: active; positive
Test System: AMES SALMONELLA TYPHIMURIUM, Strain/Indicator: TA1535, Metabolic Activation: NONE, Method: STANDARD PLATE
  mutagenic call: active; positive

## CC(=O)O[C@@H]1[C@H](OC(C)=O)COC(Nc2ccc([N+](=O)[O-])cc2)[C@@H]1OC(C)=O (some centres not stated)
[8]
  mutagenic call: active; positive

## COc1cc(NCCCCCNC(C)C)c2ncccc2c1
Test System: AMES SALMONELLA TYPHIMURIUM, Strain/Indicator: TA97, Metabolic Activation: NONE, Method: PREINCUBATION
  mutagenic call: inactive; negative
Test System: AMES SALMONELLA TYPHIMURIUM, Strain/Indicator: TA97, Metabolic Activation: RAT, LIVER, S-9, PHENOBARBITAL AND BETA-NAPHTHOFLAVONE, Method: PREINCUBATION
  mutagenic call: active; positive
[1]
  mutagenic call: inactive; negative
[2]
  mutagenic call: inactive; negative
[3]
  mutagenic call: inactive; negative
[4]
  mutagenic call: inactive; negative
[5]
  mutagenic call: inactive; negative
[6]
  mutagenic call: inactive; negative
Test System: E.COLI, Strain/Indicator: WP2UVRA/PKM101, Metabolic Activation: NONE, Method: PREINCUBATION
  mutagenic call: inactive; negative
Test System: E.COLI, Strain/Indicator: WP2UVRA/PKM101, Metabolic Activation: RAT LIVER S-9, PHENOBARBITAL AND 5,6-BENZOFLAVONE, Method: PREINCUBATION
  mutagenic call: inactive; negative

## Cn1c([N+](=O)[O-])cnc1C1NC(CO)(CO)CO1 (configuration not stated)
Test System: AMES SALMONELLA TYPHIMURIUM, Strain/Indicator: TA97, Metabolic Activation: NONE, Method: STANDARD PLATE
  mutagenic call: active; positive
Test System: AMES SALMONELLA TYPHIMURIUM, Strain/Indicator: TA97, Metabolic Activation: RAT, LIVER, S-9, AROCLOR 1254, Method: STANDARD PLATE
  mutagenic call: active; positive
[9]
  mutagenic call: active; positive
[10]
  mutagenic call: active; positive
[8]
  mutagenic call: active; positive
[11]
  mutagenic call: active; positive
Test System: AMES SALMONELLA TYPHIMURIUM, Strain/Indicator: TA102, Metabolic Activation: NONE, Method: STANDARD PLATE
  mutagenic call: active; positive
Test System: AMES SALMONELLA TYPHIMURIUM, Strain/Indicator: TA102, Metabolic Activation: RAT, LIVER, S-9, AROCLOR 1254, Method: STANDARD PLATE
  mutagenic call: active; positive

## Clc1cccc2cc3ccccc3cc12
[9]
  mutagenic call: inactive; negative
[10]
  mutagenic call: inactive; negative
[8]
  mutagenic call: inactive; negative
[11]
  mutagenic call: inactive; negative

## CN(C)c1ccc(N=Nc2ccccc2CO)cc1
Test System: AMES SALMONELLA TYPHIMURIUM, Strain/Indicator: TA98, Metabolic Activation: RAT, LIVER, S-9, N-BENZYLIMIDAZOLE, Method: PREINCUBATION
  mutagenic call: active; positive
